In US9624245B2, “Macrocyclic compounds as HCV entry inhibitors” (priority 2013, dated 2017):
Like-named read-outs stand apart in the source and are kept apart here.

Test system: HCV pseudoparticles, genotype 1a HCV E1 and E2 envelope (H77C isolate)
Experiment: HCV pseudoparticle infection assay (luciferase reporter, Huh7 cells)
Assay type: cell-based, HCV genotype 1a (H77C)
Conditions: Hepatitis C virus, Huh-7, 48 h
[1] = read-out: EC50 (nM) 1a (H77C), HCV pseudoparticle entry into Huh7 cells, luciferase measured 2 days after infection, average of duplicates
[2] = read-out: EC50 (nM) 1a (H77C), class symbol, HCV pseudoparticle entry into Huh7 cells, luciferase measured 2 days after infection

SMILES: O=C1c2ccc(cc2)Nc2nc(nc(OCC(F)(F)F)n2)NCc2ccc(cc2)OCCCN2CCC3(CCN1C3)C2 (stereo not drawn) [Example 1001]
- EC50 [1]: 160 nM
- EC50 [2]: 10 to 1000 nM

SMILES: O=C1c2ccc(cc2)Nc2nc(nc(OCC(F)(F)F)n2)NCc2ccc(cc2)OCCCN2CCCNCCCN1CCC2 [Example 1002]
- EC50 [1]: 5.32 nM
- EC50 [2]: 0.01 to 10 nM

SMILES: C=C1CNCC2CN(C2)C(=O)c2ccc(cc2)Nc2nc(nc(OCC(F)(F)F)n2)NCc2ccc(cc2)OC1 [Example 2001]
- EC50 [2]: 0.01 to 10 nM

SMILES: C=C1COc2ccc(cc2)CNc2nc(nc(OCC(F)(F)F)n2)Nc2ccc(cc2)C(=O)N2CCCN(CC2)C1 [Example 2002]
- EC50 [2]: 10 to 1000 nM

SMILES: C=C1COc2ccc(cc2)CNc2nc(nc(OCC(F)(F)F)n2)Nc2ccc(cc2)C(=O)N2CC3(CN(C1)C3)C2 [Example 2003]
- EC50 [1]: 3.08 nM
- EC50 [2]: 0.01 to 10 nM

SMILES: C=C1COc2ccc(cc2)CNc2nc(nc(OCC(F)(F)F)n2)Nc2ccc(cc2)C(=O)N2CC3CN(C1)CC3C2 [Example 2004]
- EC50 [2]: 10 to 1000 nM

SMILES: C[C@H]1CNC2C3CN(CC32)C(=O)c2ccc(cc2)Nc2nc(nc(OCC(F)(F)F)n2)NCc2ccc(cc2)OC1 [Example 3001]
- EC50 [2]: 10 to 1000 nM

SMILES: C[C@@H]1COc2ccc(cc2)CNc2nc(nc(OCC(F)(F)F)n2)Nc2ccc(cc2)C(=O)N2CC3CCN(CC3C2)C1 (stereo partly drawn) [Example 3002]
- EC50 [1]: 116 nM
- EC50 [2]: 10 to 1000 nM

SMILES: C[C@@H]1COc2ccc(cc2)CNc2nc(nc(OCC(F)(F)F)n2)Nc2ccc(cc2)C(=O)N2CC3(C)CN(C1)CC(C)(C2)C3=O [Example 3003]
- EC50 [1]: 34.3 nM
- EC50 [2]: 10 to 1000 nM

SMILES: CC1(C)CNC(=O)C(=O)Nc2ccc(cc2)OCCCCOc2ccc(cc2)CNc2nc(nc(OCC(F)(F)F)n2)Nc2ccc(cc2)C(=O)NC1 [Example 4001]
- EC50 [2]: 10 to 1000 nM

SMILES: CC1(C)CNC(=O)C(=O)Nc2ccc(cc2)OCCCOc2ccc(cc2)CNc2nc(nc(OCC(F)(F)F)n2)Nc2ccc(cc2)C(=O)NC1 [Example 4002]
- EC50 [2]: 0.01 to 10 nM

SMILES: CC1(C)CNC(=O)C(=O)Nc2ccc(cc2)OCCOc2ccc(cc2)CNc2nc(nc(OCC(F)(F)F)n2)Nc2ccc(cc2)C(=O)NC1 [Example 4003]
- EC50 [1]: 23.6 nM
- EC50 [2]: 10 to 1000 nM

SMILES: CC1(C)CNC(=O)C(=O)Nc2ccc(cc2)OC/C=C/COc2ccc(cc2)CNc2nc(nc(OCC(F)(F)F)n2)Nc2ccc(cc2)C(=O)NC1 [Example 4004]
- EC50 [2]: 10 to 1000 nM

SMILES: CC1(C)CNC(=O)C(=O)Nc2ccc(cc2)OC/C=C\COc2ccc(cc2)CNc2nc(nc(OCC(F)(F)F)n2)Nc2ccc(cc2)C(=O)NC1 [Example 4005]
- EC50 [2]: 10 to 1000 nM

SMILES: CC1(C)CNCC2(COC2)COc2ccc(cc2)CNc2nc(nc(OCC(F)(F)F)n2)Nc2ccc(cc2)C(=O)NC1 [Example 5001]
- EC50 [1]: 0.796 nM
- EC50 [2]: 0.01 to 10 nM

SMILES: O=C1NCC2(CNCCCOc3ccc(cc3)CNc3nc(nc(OCC(F)(F)F)n3)Nc3ccc1cc3)COC2 [Example 6001]
- EC50 [2]: 0.01 to 10 nM

SMILES: C[C@H]1CNCC2(CNC(=O)c3ccc(cc3)Nc3nc(nc(OCC(F)(F)F)n3)NCc3ccc(cc3)OC1)COC2 [Example 6002]
- EC50 [2]: 10 to 1000 nM

SMILES: O=C1NCCCNCC2(COC2)COc2ccc(cc2)CNc2nc(nc(OCC(F)(F)F)n2)Nc2ccc1cc2 [Example 6003]
- EC50 [2]: 0.01 to 10 nM

SMILES: C[C@@H]1CNCC2(CNC(=O)c3ccc(cc3)Nc3nc(nc(OCC(F)(F)F)n3)NCc3ccc(cc3)OC1)COC2 [Example 6004]
- EC50 [2]: 10 to 1000 nM

SMILES: O=C1NCC2(CC2)CNCC2(COC2)COc2ccc(cc2)CNc2nc(nc(OCC(F)(F)F)n2)Nc2ccc1cc2 [Example 6005]
- EC50 [2]: 0.01 to 10 nM
